# Values quoted from earlier work, collected in patent US20200236925A1, “METHODS AND FORMULATIONS FOR PREVENTING DOWNWARD MIGRATION OF AGRICULTURAL MATERIALS” (BAYER CROPSCIENCE LP, priority 2019, published 2020).
# Tests used:
# hybrid bermudagrass [1] = settings: application rate increased from 35 to 53 g ha-1; SOC ≤0.3% w w-1
# hybrid bermudagrass [2] = settings: 35 or 52 g ha-1, fall or spring treatments
compound,measurement,setting,value
"Cc1ccc2c(c1)[C@H](Nc1nc(N)nc(C(C)F)n1)[C@@H](C)C2 (mixture of isomers) [indaziflam, N2-[(1R,2S)-2,3-dihydro-2,6-dimethyl-1H-inden-1-yl]-6-[(1RS)-1-fluoroethyl]-1,3,5-triazine-2,4-diamine]",solubility in distilled water,distilled water,2.8 µg/mL
same,field-T1/2,field persistence,> 150 days
same,aqueous solubility (Ks),pH 7,2.4 µg/mL
same,increase of hybrid bermudagrass injury,hybrid bermudagrass [1],> 10 fold
same,hybrid bermudagrass root strength vs nontreated,hybrid bermudagrass [2],no differences in hybrid bermudagrass root strength
